# Counter-ions that a name gives are not always drawn. Like-named read-outs stand apart in the source and are kept apart here.
# Assays:
# persistent E. coli = assay: Bactericidal activity against persistent E. coli selected by gentamicin; format: cell-based, Escherichia coli; conditions: for log reduction at 6.25 µg/mL / log reduction at 12.5 µg/mL / log reduction at 25 µg/mL: Escherichia coli, read-out: Log Kill
# Experimental: (§1) Escherichia coli K12; Gram negative; Reference strain.
# An antibiotic (gentamicin) was added to 5-6 day stationary-phase cultures to the final concentration of 50 to 100 μg/ml for 24 hours. After 24 hours of antibiotic treatment, the cells are washed 3 times with phosphate buffered saline (PBS), and then resuspended in PBS. The surviving bacterial cells are used as persisters. Viability is estimated by CFU counts. The persisters were then used in measurements of bactericidal activity for test compounds.
# Different concentrations of each test compound were incubated with the (persister) cell suspension in 96 well plates for various periods of time (24 and 48 hours). Bactericidal activity was then determined by taking CFU counts of the resulting cultures, as described above.
# stationary phase E. coli = assay: Bactericidal activity against stationary phase E. coli (CFU counts); format: cell-based, Escherichia coli; conditions: for log reduction at 6.25 µg/mL / log reduction at 12.5 µg/mL / log reduction at 25 µg/mL: Escherichia coli, read-out: Log kill
# Experimental: as §1
# (§2) Bacteria were grown in 10 ml of nutrient broth (No. 2 (Oxoid)) overnight at 37° C., with continuous shaking at 120 rpm. The overnight cultures were diluted (1000×) in 100 ml of growth medium and then incubated without shaking for 10 days. Viability of the bacteria was estimated by colony forming unit (CFU) counts at 2 hour intervals at the first 24 hours and at 12-24 hours afterwards. From serial 10-fold dilutions of the experimental cultures, 100 μl samples were added to triplicate plates of nutrient agar plates (Oxoid) and blood agar plates (Oxoid). Colony forming units (CFU) were counted after incubation of the plates at 37° C. for 24 hours.
# (§3) Cultures incubated for more than 24 hours are in the stationary phase. For drug screening, 5-6 day old stationary phase cultures were used.
# (§4) Different concentrations of each test compound were incubated with stationary phase cultures (5-6 day cultures) in 96 well plates for 24 or 48 hours. Bactericidal activity was then determined by taking CFU counts of the resulting cultures, as described above.
# log phase E. coli = assay: MIC against log phase E. coli; format: cell-based, Escherichia coli
# Experimental: as §1
# The above-described overnight cultures were diluted (1000×) with iso-sensitest broth. The cultures were then incubated at 37° C. with shaking for 1-2 hours to reach log CFU 6, which served as log phase cultures.
# The bactericidal activity of the drugs against log phase cultures were determined by minimal inhibitory concentration (MIC) of the drugs, which is defined as the lowest concentration which inhibits visible growth. Different concentrations of each test compound were incubated with the log-phase cultures in 96 well plates for 24 hours. Bactericidal activity was then examined by taking a spectrophotometer reading (using a plate reader) at 405 nm.
# [1] = system: stationary phase S. aureus; assay: Bactericidal activity against stationary phase S. aureus (CFU counts); format: cell-based, Staphylococcus aureus; conditions: for log reduction at 6.25 µg/mL / log reduction at 12.5 µg/mL / log reduction at 25 µg/mL: Staphylococcus aureus, read-out: Log Kill
# Experimental: Staphylococcus aureus (Oxford strain); Gram positive; Reference strain.
# as §2, §3, §4
# [2] = system: NDM-1 Klebsiella pneumoniae; assay: Chequerboard analysis with colistin against NDM-1 Klebsiella pneumoniae; format: cell-based
# [3] = system: stationary phase P. aeruginosa; assay: Bactericidal activity against stationary phase P. aeruginosa; format: cell-based, Pseudomonas aeruginosa; conditions: FIG. 1
# Experimental: as §2, with “Pseudomonas aeruginosa NCTC 6751; Gram negative; Reference strain. Bacteria” for “Bacteria”, “hours. Cultures incubated for more than 24 hours are in the stationary phase. For drug screening, 5-6 day old stationary phase cultures were used. Different concentrations of each test compound were incubated with stationary phase cultures (5-6 day cultures) in 96 well plates for 24 or 48 hours. Bactericidal activity was then determined by taking CFU counts of the resulting cultures, as described above.” for “hours.”
# [4] = Escherichia coli, read-out: MIC
Compound,Log Kill (persistent E. coli; 6.25 μg/ml),Log Kill (persistent E. coli; 12.5 μg/ml),Log Kill (persistent E. coli; 25 μg/ml),Log Kill (stationary phase E. coli; 6.25 μg/ml),Log Kill (stationary phase E. coli; 12.50 μg/ml),Log Kill (stationary phase E. coli; 25.00 μg/ml),MIC (log phase E. coli),log reduction at 6.25 µg/mL (persistent E. coli; 6.25 μg/ml),log reduction at 12.5 µg/mL (persistent E. coli; 12.5 μg/ml),log reduction at 25 µg/mL (persistent E. coli; 25 μg/ml),log reduction at 6.25 µg/mL (stationary phase E. coli; 6.25 μg/ml),log reduction at 12.5 µg/mL (stationary phase E. coli; 12.50 μg/ml),log reduction at 25 µg/mL (stationary phase E. coli; 25.00 μg/ml),log reduction at 6.25 µg/mL ([1]; 6.25 μg/ml),log reduction at 12.5 µg/mL ([1]; 12.5 μg/ml),log reduction at 25 µg/mL ([1]; 25 μg/ml),MIC (log phase E. coli; [4]) [µg/mL],other results
Bleomycin,1.55,6.21,6.21,2.22,6.14,6.14,0.15 µg/mL,–,–,–,–,–,–,–,–,–,–,–
CSc1ccc2c(c1)N(CCC1CCCCN1C)c1ccccc1S2 (centres unmarked) [Thioridazine hydrochloride],–,–,–,–,–,–,–,0.04,0.03,6.21,6.14,6.14,6.14,6.03,6.03,6.03,10,spectrophotometer reading ([2]; thioridazine hydrochloride 0.25 mg/L alone): 0.98; spectrophotometer reading ([2]; thioridazine hydrochloride 0.5 mg/L alone): 0.97; spectrophotometer reading ([2]; thioridazine hydrochloride 1 mg/L alone): 0.97; spectrophotometer reading ([2]; thioridazine hydrochloride 2 mg/L alone): 0.96; spectrophotometer reading ([2]; thioridazine hydrochloride 4 mg/L alone): 0.96; spectrophotometer reading ([2]; thioridazine hydrochloride 8 mg/L alone): 0.96; spectrophotometer reading ([2]; thioridazine hydrochloride 16 mg/L alone): 0.96; spectrophotometer reading ([2]; thioridazine hydrochloride 32 mg/L alone): 0.93; spectrophotometer reading ([2]; thioridazine hydrochloride 64 mg/L alone): 0.73; spectrophotometer reading ([2]; thioridazine hydrochloride 128 mg/L alone): 0.76; spectrophotometer reading ([2]; thioridazine hydrochloride 256 mg/L alone): 1.41
CN(C)CCCN1c2ccccc2Sc2ccc(C(F)(F)F)cc21 [Triflupromazine hydrochloride],–,–,–,–,–,–,–,0.03,2.34,6.21,2.1,6.14,6.14,6.15,6.15,6.15,10,spectrophotometer reading ([2]; triflupromazine 0.25 mg/L alone): 1.11; spectrophotometer reading ([2]; triflupromazine 0.5 mg/L alone): 1.13; spectrophotometer reading ([2]; triflupromazine 1 mg/L alone): 1.14; spectrophotometer reading ([2]; triflupromazine 2 mg/L alone): 1.13; spectrophotometer reading ([2]; triflupromazine 4 mg/L alone): 1.14; spectrophotometer reading ([2]; triflupromazine 8 mg/L alone): 1.17; spectrophotometer reading ([2]; triflupromazine 16 mg/L alone): 1.11; spectrophotometer reading ([2]; triflupromazine 32 mg/L alone): 1.08; spectrophotometer reading ([2]; triflupromazine 64 mg/L alone): 0.73; spectrophotometer reading ([2]; triflupromazine 128 mg/L alone): 0.76; spectrophotometer reading ([2]; triflupromazine 256 mg/L alone): 0.41
CCCCCCCCNC(C)C(O)c1ccc(SC(C)C)cc1 (centres unmarked) [Suloctidil],–,–,–,–,–,–,–,0.02,0.02,6.21,–,–,–,6.03,6.03,6.03,10,activity against stationary phase P. aeruginosa [3]: no observable activity; spectrophotometer reading ([2]; suloctidil 0.25 mg/L alone): 0.97; spectrophotometer reading ([2]; suloctidil 0.5 mg/L alone): 1.03; spectrophotometer reading ([2]; suloctidil 1 mg/L alone): 0.98; spectrophotometer reading ([2]; suloctidil 2 mg/L alone): 0.93; spectrophotometer reading ([2]; suloctidil 4 mg/L alone): 0.94; spectrophotometer reading ([2]; suloctidil 8 mg/L alone): 0.70; spectrophotometer reading ([2]; suloctidil 16 mg/L alone): 0.60; spectrophotometer reading ([2]; suloctidil 32 mg/L alone): 0.60; spectrophotometer reading ([2]; suloctidil 64 mg/L alone): 0.38; spectrophotometer reading ([2]; suloctidil 128 mg/L alone): 0.44; spectrophotometer reading ([2]; suloctidil 256 mg/L alone): 0.61
Cl.Cl.O=C1c2c(O)ccc(O)c2C(=O)c2c(NCCNCCO)ccc(NCCNCCO)c21 [Mitoxanthrone hydrochloride],6.21,6.21,6.21,6.14,6.14,6.14,— (— signifies MIC higher than 50 μg/ml),–,–,–,–,–,–,–,–,–,–,–
CO[C@@]12[C@H](COC(N)=O)C3=C(C(=O)C(C)=C(N)C3=O)N1C[C@@H]1N[C@@H]12 [Mitomycin C],6.21,6.21,6.21,2.27,6.14,6.14,0.3 µg/mL,–,–,–,–,–,–,–,–,–,–,Log Kill ([1]; 6.25 μg/ml): 6.15; Log Kill ([1]; 12.5 μg/ml): 6.15; Log Kill ([1]; 25 μg/ml): 6.15
N.N.O=C([O-])C1(C(=O)[O-])CCC1.[Pt+2] [Carboplatin],1.55,2.55,6.21,6.14,6.14,6.14,— (— signifies MIC higher than 50 μg/ml),–,–,–,–,–,–,–,–,–,–,Log Kill ([1]; 6.25 μg/ml): 0.92; Log Kill ([1]; 12.5 μg/ml): 6.03; Log Kill ([1]; 25 μg/ml): 6.03
N=C1C=CC(=C(c2ccc(N)cc2)c2ccc(N)cc2)C=C1 [Pararosaniline pamoate],–,–,–,–,–,–,–,-0.01,0.01,6.21,1.9,6.14,6.14,6.15,6.15,6.15,10,–
C[n+]1cc2c3c(ccc2c2ccc4cc5c(cc4c21)OCO5)OCO3 [Sanguinarine sulfate],–,–,–,–,–,–,–,0.04,1.47,6.21,-0.1,2.4,6.14,6.15,6.15,6.15,> 50,–
N.N.[Cl][Pt][Cl] [Cisplatin],6.21,6.21,6.21,6.14,6.14,6.14,— (— signifies MIC higher than 50 μg/ml),–,–,–,–,–,–,–,–,–,–,Log Kill ([1]; 6.25 μg/ml): 6.03; Log Kill ([1]; 12.5 μg/ml): 6.03; Log Kill ([1]; 25 μg/ml): 6.03
CN(C)CC/C=C1/c2ccccc2Sc2ccc(Cl)cc21 [Chlorprothixene hydrochloride],–,–,–,–,–,–,–,0.02,0.03,6.21,–,–,–,1.83,6.15,6.15,20,spectrophotometer reading ([2]; chlorprothixene hydrochloride 0.25 mg/L alone): 1.14; spectrophotometer reading ([2]; chlorprothixene hydrochloride 0.5 mg/L alone): 1.15; spectrophotometer reading ([2]; chlorprothixene hydrochloride 1 mg/L alone): 1.13; spectrophotometer reading ([2]; chlorprothixene hydrochloride 2 mg/L alone): 1.12; spectrophotometer reading ([2]; chlorprothixene hydrochloride 4 mg/L alone): 1.12; spectrophotometer reading ([2]; chlorprothixene hydrochloride 8 mg/L alone): 1.13; spectrophotometer reading ([2]; chlorprothixene hydrochloride 16 mg/L alone): 1.10; spectrophotometer reading ([2]; chlorprothixene hydrochloride 32 mg/L alone): 1.05; spectrophotometer reading ([2]; chlorprothixene hydrochloride 64 mg/L alone): 0.70; spectrophotometer reading ([2]; chlorprothixene hydrochloride 128 mg/L alone): 0.62; spectrophotometer reading ([2]; chlorprothixene hydrochloride 256 mg/L alone): 0.40

# Source: US9549965B2, “Pharmaceutical composition for treating a microbial infection” (HELPERBY THERAPEUTICS LIMITED, priority 2010, dated 2017)
